The test concerns the target endogenous CETP from serum (Homo sapiens (Human), UniProt P11597). The experiment in a line: RTA assay in 95% human serum (CETP-catalyzed CE and TG transfer, endogenous CETP). In kind it is biochemical. From the text: In Vitro Radioactive Assays of CETP-Catalyzed CE and TG Transfer (RTA Assay)
Reagents and sources are: [3H] cholesteryl oleate (GE #TRK.886), [3H] Triolein (Perkin-Elmer NET-431), Butylated hydroxyl toluene (Aldrich, #D4740-4), DOPC (Sigma, #P6354), Sodium Bromide (Fisher scientific #S255-500), PEG 8000 (Fisher, #BP233-1), and human HDL (Intracel Corp #RP-036).
Both assays measure the transfer of [3H] cholesteryl oleate or [3H] triolein from exogenous LDL to HDL.
Radiolabeled donor particles are generated by first combining 100 μl of 200 μM butylated hydroxyl toluene in CHCl3, 216 μL of 21.57 mM DOPC in EtOH, and either 500 μCi [3H]-triolein (Perkin Elmer #NET-431) or 500 μCi [3H]-cholesteryl oleate (GE #TRK886) in a glass tube. Reagents are mixed, dried under nitrogen, and then resuspended in 2 mL of 50 mM Tris, 27 μM EDTA at pH 7.4. After a brief vortex, the solution is sonicated until clear and mixed with 20 mL of fresh human serum. The mixture is incubated overnight at 37° C. The [3H] labeled LDL substrate is separated at 1.063 g/ml density by sequential ultracentrifugal flotation in NaBr according to the method of Havel, Eder, et al., 1955, and Chapman, Goldstein, et al., 1981. Once isolated the particles are dialyzed 3× in CETP buffer (50 mM Tris, pH 7.4, 100 mM NaCl, 1 mM EDTA). Human HDL is purchased from Intracel and used as the acceptor particles.
Transfer assays are performed in a 96-well v-bottom polypropylene plate. For the RTA using recombinant CETP (2% RTA), an assay cocktail is prepared with the final concentrations 128 μg/mL HDL, 20 nM rCETP, 2% human serum, and 1×CETP buffer. 1 μL of each test compound diluted in DMSO is added to 47 μL of assay cocktail per well and incubated at 37° C. for 1 hour. To initiate the transfer reaction, 2 μL radiolabeled LDL is added. After an additional 60 min of incubation at 37° C., the transfer action is terminated by precipitation of LDL with an equal volume of 20% W/V PEG 8000. The plates are centrifuged at 2000 rpm for 30 minutes at 4° C. A 40 μL aliquot of the HDL-containing supernatant is transferred to a Packard Optiplate™ with 200 μL of MicroScint™ 20. After mixing, plates are counted by liquid scintillation. Counts present in the supernatant for blanks (wells containing only HDL acceptor, CETP buffer and DMSO) are subtracted from those containing test compounds and used to correct for non-specific transfer.
For the transfer assay using endogenous CETP from serum (95% RTA), the same procedure is used except that human serum is added such that a final concentration of serum of 95% of the total assay volume is achieved, yielding a concentration of approximately 15 nM endogenous CETP in the assay. This is then combined with HDL and CETP buffer and the reaction proceeds as above and is terminated as described.
Comparison of the counts of samples with inhibitors to an uninhibited (DMSO only) positive control yield a percent inhibition. A plot of percent inhibition vs. log of inhibitor concentration, fit to a Sigmoidal 4 parameter equation is used to calculate IC50.
Starting materials are commercially available or are made using known procedures or as shown below. The examples may be synthesized according to the general schemes provided below and through the synthetic intermediates that are described. […] When compounds of Formula I or Formula II are mentioned herein, such compounds include compounds defined generically by Formula I or II and also the specific examples disclosed herein.

Where [1] appears, read: generally RTA assay in 95% human serum, read-out: IC50.
Setting [2] is: 95% human serum, read-out: RTA (95% HS).

This is an account of results in patent US9717714B2, “Spirocyclic CETP inhibitors” (Merck Sharp & Dohme Corp., priority 2012, dated 2017).

Read-outs that look alike come from different tables or passages of the source.

Sequence of endogenous CETP from serum (P11597 18-493 limits assumed): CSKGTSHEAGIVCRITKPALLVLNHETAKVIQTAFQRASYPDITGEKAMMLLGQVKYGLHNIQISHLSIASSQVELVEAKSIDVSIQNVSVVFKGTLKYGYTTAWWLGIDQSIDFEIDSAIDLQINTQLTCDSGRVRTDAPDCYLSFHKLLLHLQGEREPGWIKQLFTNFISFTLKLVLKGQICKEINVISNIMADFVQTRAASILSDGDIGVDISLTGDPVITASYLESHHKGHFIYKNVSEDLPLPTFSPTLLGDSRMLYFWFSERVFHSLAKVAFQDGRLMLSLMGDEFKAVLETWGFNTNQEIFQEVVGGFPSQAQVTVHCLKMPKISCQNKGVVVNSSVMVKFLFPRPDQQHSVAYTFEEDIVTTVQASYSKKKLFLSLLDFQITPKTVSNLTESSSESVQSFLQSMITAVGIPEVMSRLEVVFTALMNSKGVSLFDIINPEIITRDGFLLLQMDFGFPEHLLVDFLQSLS

In the case of `COc1ccc(-c2ccc(CO)cc2C)cc1-c1cnc(N2CC(F)C2)nc1CN1C(=O)O[C@H](c2cc(C(F)(F)F)cc(C(F)(F)F)c2)C12CCC2` [Example 7, (8R)-8-[3,5-bis(trifluoromethyl)phenyl]-5-({2-(3-fluoroazetidin-1-yl)-5-[4′-(hydroxymethyl)-4-methoxy-2′-methylbiphenyl-3-yl]pyrimidin-4-yl}methyl)-7-oxa-5-azaspiro[3.4]octan-6-one], under setting [1], the IC50 was determined as 68 nM.

As for `COc1ccc([C@H]2C[C@H](C(=O)O)C2)cc1-c1ccc(C(F)(F)F)nc1CN1C(=O)O[C@H](c2cc(C(F)(F)F)cc(C(F)(F)F)c2)C12CC2` [Example 1, trans-3-{3-[2-({(7R)-7-[3,5-bis(trifluoromethyl)phenyl]-5-oxo-6-oxa-4-azaspiro[2.4]hept-4-yl}methyl)-6-(trifluoromethyl)pyridin-3-yl]-4-methoxyphenyl}cyclobutanecarboxylic acid], the IC50 under setting [2] amounted to 962 nM.

`COc1ccc(-c2ccc(C(=O)O)cc2C)cc1-c1cnc(N2CCOCC2)nc1CN1C(=O)O[C@H](c2cc(C(F)(F)F)cc(C(F)(F)F)c2)C12CC2` [Example 16, 3′-[4-({(7R)-7-[3,5-bis(trifluoromethyl)phenyl]-5-oxo-6-oxa-4-azaspiro[2.4]hept-4-yl}methyl)-2-morpholin-4-ylpyrimidin-5-yl]-4′-methoxy-2-methylbiphenyl-4-carboxylic acid]: the IC50 under setting [1] came to 272 nM.

Regarding `COc1cc(F)c(C(C)C)cc1-c1cnc(N(C)C)nc1CN1C(=O)OC(c2cc(C(F)(F)F)cc(C(F)(F)F)c2)C12CC2` (stereo not shown) [Example 10, 7-[3,5-bis(trifluoromethyl)phenyl]-4-({2-(dimethylamino)-5-[4-fluoro-2-methoxy-5-(1-methylethyl)phenyl]pyrimidin-4-yl}methyl)-6-oxa-4-azaspiro[2.4]heptan-5-one], the IC50 under setting [1] came to 345 nM.

`COC(=O)c1ccc(-c2ccc(OC)c(-c3cnc(SC)nc3CN3C(=O)O[C@H](c4cc(C(F)(F)F)cc(C(F)(F)F)c4)C34CC4)c2)c(C)c1` [Example 18, methyl 3′-[4-({(7R)-7-[3,5-bis(trifluoromethyl)phenyl]-5-oxo-6-oxa-4-azaspiro[2.4]hept-4-yl}methyl)-2-(methylsulfanyl)pyrimidin-5-yl]-4′-methoxy-2-methylbiphenyl-4-carboxylate]: the IC50 under setting [1] turned out to be 596 nM.

For the compound `COc1ccc(-c2ccc(C(=O)O)cc2C)cc1-c1cnc(N2CC(F)C2)nc1CN1C(=O)O[C@H](c2cc(C(F)(F)F)cc(C(F)(F)F)c2)C12CCC2` [Example 12, 3′-[4-({(8R)-8-[3,5-bis(trifluoromethyl)phenyl]-6-oxo-7-oxa-5-azaspiro[3.4]oct-5-yl}methyl)-2-(3-fluoroazetidin-1-yl)pyrimidin-5-yl]-4′-methoxy-2-methylbiphenyl-4-carboxylic acid], under setting [1], the IC50 was 73 nM.

Take `COc1ncc(-c2ccc(C(=O)O)cc2C)cc1-c1ccc(C(F)(F)F)nc1CN1C(=O)O[C@H](c2cc(C(F)(F)F)cc(C(F)(F)F)c2)C12CC2` [Example 4, 4-[2′-({(7R)-7-[3,5-bis(trifluoromethyl)phenyl]-5-oxo-6-oxa-4-azaspiro[2.4]hept-4-yl}methyl)-2-methoxy-6′-(trifluoromethyl)-3,3′-bipyridin-5-yl]-3-methylbenzoic acid]: the IC50 under setting [1] worked out at 173 nM.

Regarding `COc1ccc(-c2ccc(C(=O)O)cc2C)cc1-c1cnc(N2CC(F)C2)nc1CN1C(=O)O[C@H](c2cc(C(F)(F)F)cc(C(F)(F)F)c2)C12CC2` [Example 15, 3′-[4-({(7R)-7-[3,5-bis(trifluoromethyl)phenyl]-5-oxo-6-oxa-4-azaspiro[2.4]hept-4-yl}methyl)-2-(3-fluoroazetidin-1-yl)pyrimidin-5-yl]-4′-methoxy-2-methylbiphenyl-4-carboxylic acid], the IC50 under setting [1] turned out to be 104 nM.

Take `COc1ccc(-c2ccc(C(=O)O)cc2C)cc1-c1cnc(N2CCOCC2)nc1CN1C(=O)O[C@H](c2cc(C(F)(F)F)cc(C(F)(F)F)c2)C12CCC2` [Example 13, 3′-[4-({(8R)-8-[3,5-bis(trifluoromethyl)phenyl]-6-oxo-7-oxa-5-azaspiro[3.4]oct-5-yl}methyl)-2-morpholin-4-ylpyrimidin-5-yl]-4′-methoxy-2-methylbiphenyl-4-carboxylic acid]: the IC50 under setting [1] stood at 242 nM.

`COc1ccc(-c2ccc(C(=O)O)cc2C)cc1-c1ccc(C(F)(F)F)nc1CN1C(=O)O[C@H](c2cc(C(F)(F)F)cc(C(F)(F)F)c2)C12CC2` [Example 2, 3′-[2-({(7R)-7-[3,5-bis(trifluoromethyl)phenyl]-5-oxo-6-oxa-4-azaspiro[2.4]hept-4-yl}methyl)-6-(trifluoromethyl)pyridine-3-yl]-4′-methoxy-2-methylbiphenyl-4-carboxylic acid]: the IC50 under setting [1] amounted to 212 nM.

In the case of `COc1ccc(-c2ccc(C(=O)O)cc2C)cc1-c1cnc(N(C)S(C)(=O)=O)nc1CN1C(=O)O[C@H](c2cc(C(F)(F)F)cc(C(F)(F)F)c2)C12CCC2` [Example 14, 3′-[4-({(8R)-8-[3,5-bis(trifluoromethyl)phenyl]-6-oxo-7-oxa-5-azaspiro[3.4]oct-5-yl}methyl)-2-[methyl (methylsulfonyl)amino]pyrimidin-5-yl}-4′-methoxy-2-methylbiphenyl-4-carboxylic acid], the IC50 under setting [1] is 561 nM.

As for `COc1ccc([C@H]2C[C@H](CO)C2)cc1-c1ccc(C(F)(F)F)nc1CN1C(=O)O[C@H](c2cc(C(F)(F)F)cc(C(F)(F)F)c2)C12CC2` [Example 6, (7R)-7-[3,5-bis(trifluoromethyl)phenyl]-4-{[3-{5-[trans-3-(hydroxymethyl)cyclobutyl]-2-methoxyphenyl}-6-(trifluoromethyl)pyridin-2-yl]methyl}-6-oxa-4-azaspiro[2.4]heptan-5-one], the IC50 under setting [2] was 1850 nM.

In the case of `COc1cc(F)c(-c2ccc(C(=O)O)cc2C)cc1-c1ccc(C(F)(F)F)nc1CN1C(=O)O[C@H](c2cc(C(F)(F)F)cc(C(F)(F)F)c2)C12CC2` [Example 3, 5′-[2-({(7R)-7-[3,5-bis(trifluoromethyl)phenyl]-5-oxo-6-oxa-4-azaspiro[2.4]hept-4-yl}methyl)-6-(trifluoromethyl)pyridin-3-yl]-2′-fluoro-4′-methoxy-2-methylbiphenyl-4-carboxylic acid], under setting [1], the IC50 worked out at 119 nM.

As to `COc1ccc(-c2ccc(C(=O)O)cc2C)cc1-c1cnc(N(C)C)nc1CN1C(=O)O[C@H](c2cc(C(F)(F)F)cc(C(F)(F)F)c2)C12CC2` [Example 9, 3′-[4-({(7R)-7-[3,5-bis(trifluoromethyl)phenyl]-5-oxo-6-oxa-4-azaspiro[2.4]hept-4-yl}methyl)-2-(dimethylamino)pyrimidin-5-yl]-4′-methoxy-2-methylbiphenyl-4-carboxylic acid], the IC50 under setting [2] is 55.5 nM.

Turning to `COc1ccc(CCC(=O)O)cc1-c1ccc(C(F)(F)F)nc1CN1C(=O)O[C@H](c2cc(C(F)(F)F)cc(C(F)(F)F)c2)C12CC2` [Example 5, 3-{3-[2-({(7R)-7-[3,5-bis(trifluoromethyl)phenyl]-5-oxo-6-oxa-4-azaspiro[2.4]hept-4-yl}methyl)-6-(trifluoromethyl)pyridin-3-yl]-4-methoxyphenyl}propanoic acid], the IC50 under setting [1] turned out to be 3360 nM.

Regarding `COC(=O)c1ccc(-c2ccc(OC)c(-c3cnc(SC)nc3CN3C(=O)O[C@H](c4cc(C(F)(F)F)cc(C(F)(F)F)c4)C34CCC4)c2)c(C)c1` [Example 17, methyl 3′-[4-({(8R)-8-[3,5-bis(trifluoromethyl)phenyl]-6-oxo-7-oxa-5-azaspiro[3.4]oct-5-yl}methyl)-2-(methylsulfanyl)pyrimidin-5-yl]-4′-methoxy-2-methylbiphenyl-4-carboxylate], under setting [2], the IC50 stood at 913 nM.
